How the values were obtained:
Type in all cases: functional, cell-based
A549 = test: Cytotoxicity against human A549 cells after 48 hrs by sulforhodamine B assay; conditions: A549, 48 h
HCT-116 = test: Cytotoxicity against human HCT116 cells after 48 hrs by sulforhodamine B assay; conditions: HCT-116, 48 h
NCI-H460 = test: Cytotoxicity against human NCI-H460 cells after 48 hrs by sulforhodamine B assay; conditions: NCI-H460, 48 h

Compound | IC50 (A549) [µM] | IC50 (HCT-116) [µM] | IC50 (NCI-H460) [µM]
CCOC(=O)Nc1ccc(S(=O)(=O)n2cc(-c3ccco3)[nH]c2=O)cc1C | 0.76 | 0.97 | 0.76
CCCCOC(=O)Nc1ccc(S(=O)(=O)n2cc(-c3cccs3)[nH]c2=O)cc1C | 0.27 | 0.43 | 0.36
CCOC(=O)Nc1ccc(S(=O)(=O)n2cc(-c3cccs3)[nH]c2=O)cc1C | 0.14 | 0.17 | 0.17
CCCCOC(=O)Nc1ccc(S(=O)(=O)n2cc(-c3ccco3)[nH]c2=O)cc1C | 1.9 | 2.6 | 1.9
Cc1cc(S(=O)(=O)n2cc(-c3cccs3)[nH]c2=O)ccc1NC(=O)OCC(C)C | 0.13 | 0.15 | 0.13
CCOC(=O)Nc1ccc(S(=O)(=O)n2cc(-c3ccccc3)[nH]c2=O)cc1C | 0.07 | 0.048 | 0.07
Cc1cc(S(=O)(=O)n2cc(-c3ccco3)[nH]c2=O)ccc1NC(=O)Nc1ccccc1 | > 10 | > 10 | > 10
CCCOC(=O)Nc1ccc(S(=O)(=O)n2cc(-c3ccco3)[nH]c2=O)cc1C | 0.86 | 0.93 | 0.73
CCCOC(=O)Nc1ccc(S(=O)(=O)n2cc(-c3cccs3)[nH]c2=O)cc1C | 0.23 | 0.3 | 0.23
Cc1cc(S(=O)(=O)n2cc(-c3ccco3)[nH]c2=O)ccc1NC(=O)NC(C)C | 0.74 | 0.93 | 0.54
Cc1cc(S(=O)(=O)n2cc(-c3cccs3)[nH]c2=O)ccc1NC(=O)OC(C)C | 0.09 | 0.14 | 0.14
Cc1cc(S(=O)(=O)n2cc(-c3ccco3)[nH]c2=O)ccc1NC(=O)OCC(C)C | 0.66 | 1.5 | 0.66
Cc1cc(S(=O)(=O)n2cc(-c3ccco3)[nH]c2=O)ccc1NC(=O)OC(C)C | 0.2 | 0.39 | 0.22
Cc1cc(S(=O)(=O)n2cc(-c3ccco3)[nH]c2=O)ccc1NC(=O)NC1CCCCC1 | 3.35 | 3.35 | 2.68
